Laboratory results taken from US4357344A, “Polybutylbenzylphenols and benzyl-3,4-methylenedioxybenzenes in insect population control” (The United States of America as represented by the …, priority 1979, dated 1982).

Assays:
[1] = system: early fourth-stage larvae of the common malaria mosquito (Anopheles quadrimaculatus); assay: Growth-inhibition tests on mosquito larvae; assay type: in vivo; conditions: in water; corrected by Abbott's formula
Procedure: The compound to be tested was added to one liter of water until the final concentration thereof was a growth-inhibiting amount. Fifty early fourth-stage larvae of the common malaria mosquito (Anopheles quadrimaculatus) were placed on this water. Larval food was administered daily. Dead larvae and pupae were removed, counted, and discarded daily. Live pupae were removed, rinsed, and transferred to a cup of distilled water. The cup was placed in an emergence cage, and the emerging adults, if any, were maintained on a sugar-water diet.
The effectiveness of the compound in inhibiting growth was determined by adding the number of dead larvae and pupae and the number of adults that were dead, unable to complete eclosion, and malformed. This sum was corrected by Abbott's formula (to adjust for the number of larvae or pupae which would die naturally) and designated as the GI (growth inhibition). The results are expressed as GI-90, i.e., the concentration of growth inhibitor in ppm that would prevent and/or retard growth in 90% of the treated larvae.

flies (family Muscidae) [2] = assay: Anti-procreant comparison tests (sexual sterility or oviposition inhibition); assay type: in vivo; conditions: for inducing sexual sterility or inhibiting oviposition: comparison tests, Examples 6-9; for activity in the method of the invention (ineffective compounds): general statement of the description
Procedure: (§1) The compound to be tested was administered in a standard fly food containing 6 parts of sugar, 6 parts of powdered non-fat dry milk, and 1 part of powdered egg yolk. Treated food was prepared by mixing an appropriate amount of a solution or suspension of CBCP in acetone with a batch of the food. The acetone was evaporated (4-6 hours) and the dry material was repulverized.
Oviposition inhibition tests: Samples of treated food with a container of water were placed in cages containing 100 newly-emerged adult flies (family Muscidae). After the flies had been exposed to the treated diet for 6-7 days, 1/2 inch of moist standard fly larva-rearing medium (CSMA) in souffle cups was placed in the cages for oviposition. After 4-6 hours, the cup was removed and examined for eggs. If no eggs were laid, the medium was offered again at intervals of 1 or 2 days until it had been offered three times or the flies had oviposited.
(§2) Chemosterilancy tests: If eggs were laid in the above tests, the cups were filled with water and stirred to break up the egg masses. A random sample of 100 eggs from each cup was collected and placed on a small piece of black cloth which was then laid on top of moist larva-rearing medium in a rearing container. Observations were made to determine percentage of egg hatch and pupal development.
(§3) These flies were maintained on untreated fly food. After 5 days, cups containing the larval-rearing medium was provided as previously described and a 100-egg sample was collected and place on moist larve-rearing medium. About a week after oviposition, examination was made to determine the percentage of hatched eggs and of pupae developed.
For purpose of comparison the above-described tests were applied to 2-benzyl-4-t-butylphenol and 2-(α-methylbenzyl)-4-t-butylphenol.
For purposes of comparison the above-described tests were applied to 2,6-di-t-butyl-4-(4-methoxybenzyl) phenol and 2,6-di-t-butyl-4-(α-methyl-4-methoxybenzyl)phenol, both compounds being ineffective in inducing sexual sterility or in inhibiting oviposition.
For purposes of comparison the following compounds were tested and found to be ineffective in inducing sexual sterility or in inhibiting oviposition: 2-(4-methoxybenzyl)-3,4-methylenedioxyphenol, (α-methylbenzyl)-3,4-methylenedioxy-6-methoxybenzene, (α,α-dimethylbenzyl)-3,4-methylenedioxy-6-methoxybenzene, (α,α-dimethylbenzyl)-3,4-methylenedioxy-6-ethoxybenzene, (α,α-dimethylbenzyl)-3,4-methylenedioxy-6-n-propoxybenzene, (α,α-dimethylbenzyl)-3,4-methylenedioxy-6-n-butoxybenzene, (α,α-dimethylbenzyl)-3,4-methylenedioxy-6-n-pentoxybenzene, (α-vinylbenzyl)-3,4-methylenedioxy-6-methoxybenzene, (α-vinylbenzyl)-3,4-methylenedioxy-6-ethoxybenzene, (α-vinylbenzyl)-3,4-methylenedioxy-6-n-propoxybenzene.

flies (family Muscidae) [3] = assay: Oviposition inhibition tests (treated fly food; Examples 6-9); assay type: in vivo
Procedure: The compound to be tested was administered in a standard fly food containing 6 parts of sugar, 6 parts of powdered non-fat dry milk, and 1 part of powdered egg yolk. Treated food was prepared by mixing an appropriate amount of a solution or suspension of CBCP in acetone with a batch of the food. The acetone was evaporated (4-6 hours) and the dry material was repulverized. Oviposition inhibition tests: Samples of treated food with a container of water were placed in cages containing 100 newly-emerged adult flies (family Muscidae). After the flies had been exposed to the treated diet for 6-7 days, 1/2 inch of moist standard fly larva-rearing medium (CSMA) in souffle cups was placed in the cages for oviposition. After 4-6 hours, the cup was removed and examined for eggs. […] The procedure outlined in Example 6 was followed using a Group II compound. The procedure outlined in Example 6 was followed using Group III compounds. The results are summarized below: The procedure outlined in Example 6 was followed substituting a Group IV compound for those of Group I. The table below provides a summary of results.

flies (family Muscidae) [4] = assay: Chemosterilancy tests (egg hatch and pupal development; Examples 6-9); assay type: in vivo
Procedure: as §1, §2
The procedure outlined in Example 6 was followed using a Group II compound.
The procedure outlined in Example 6 was followed using Group III compounds. The results are summarized below:
The procedure outlined in Example 6 was followed substituting a Group IV compound for those of Group I. The table below provides a summary of results.

[5] = system: Salmonella tester strains TA-100, TA-98, TA-1537; assay: Ames' Salmonella/microsome mutagenicity procedure; conditions: for mutagenic activity: TA-100, TA-98, TA-1537, without or with metabolic activation
Procedure: The mutagenic activity of D, A, B, M, N, and CC were tested by the standard Ames' Salmonella/microsome procedure, which is reported to show better than 90% correlation with development of mammalian cancers (Ames et al., Mutation Research, Vol. 31, p. 347, 1975; McCann et al., Proc. Nat. Acad. Sci., Vol. 72, p. 5135, 1975). Tester strains TA-100, TA-98, TA-1537 and the plate test method were used, employing concentrations of 10, 100, 1000, and 10,000 […]. The metabolic activation mixture (S-9 mix) used the 9000 times g supernatant of Arochlor-1254-induced rat liver homogenate at a level of 100 μl per ml of S-9 mix.

screwworm flies = assay: Anti-procreant tests on screw-worm fly; assay type: in vivo; conditions: 0.10% in food
Procedure: These tests were conducted on mass-reared screwworm flies which had been obtained as pupae from the screwworm fly plant at Mission, Texas. The flies were held in cages with water and undiluted corn syrup in a colony room maintained at about 27° C. and 60% relative humidity (RH) with a 12-hour photoperiod beginning at 6 a.m. Adults that emerged were lightly anesthetized with CO2 for ease of manipulation the same day.
The mixtures obtained were fed to the flies in "Dixie" paper cups, 7 cm diameter, and rice hulls were placed on the surface of the food to prevent the flies from getting stuck in the viscous mixture.
Initially, varying concentrations of a chemosterilant were fed to the flies for the first 5 days of life. Thereafter, the chemosterilant was replaced with pure corn syrup. On the 7th day, 3 replicates of 10 flies were stimulated to oviposit and the flies which oviposited were checked for insemination by an examination of the spermathecae for live sperms. The total number of eggs per fly was estimated and the hatchability of these eggs (fertility) was determined 24 hours later (at 37° C.). Observations were made to determine percentage of egg hatch.

Solubility in water = assay type: physicochemical
[6] = system: male flies (family Muscidae); assay: Sterilization of treated males crossed with virgin untreated females; assay type: in vivo
Procedure: as §1, §3

Row | SMILES | GI-90 (concentration of growth inhibitor that would prevent and/or retard growth in 90% of the treated larvae) [1] [ppm] | inducing sexual sterility or inhibiting oviposition (flies (family Muscidae) [2]) | activity in the method of the invention (ineffective compounds) (flies (family Muscidae) [2]) | Mortality, parent generation (flies (family Muscidae) [3]; 0.05% in food) [%] | Mortality, parent generation (flies (family Muscidae) [3]; 0.1% in food) [%] | Mortality, parent generation (flies (family Muscidae) [3]; 0.25% in food) [%] | Egg hatch (flies (family Muscidae) [4]; 0.05% in food) [%] | Pupal development (flies (family Muscidae) [4]; 0.05% in food) [%] | Mortality, parent generation (flies (family Muscidae) [3]; 0.01% in food) [%] | Mortality, parent generation (flies (family Muscidae) [3]; 0.025% in food) [%] | Egg hatch (flies (family Muscidae) [4]; 0.01% in food) [%] | Pupal development (flies (family Muscidae) [4]; 0.01% in food) [%] | Egg hatch (flies (family Muscidae) [4]; 0.025% in food) [%] | Pupal development (flies (family Muscidae) [4]; 0.025% in food) [%] | Inhibition of embryogenesis (screwworm flies) [%] | Oviposition (screwworm flies) [%] | Survival, Female (screwworm flies) [%] | Survival, Male (screwworm flies) [%] | solubility in water (Solubility in water) | further results
1 | COc1ccc(Cc2cc(C(C)(C)C)c(O)c(C(C)(C)C)c2)cc1 [F, 2,6-Di-t-butyl-4-(4-methoxybenzyl)phenol] | 0.042 | ineffective | ineffective |  |  |  |  |  |  |  |  |  |  |  |  |  |  |  |  | 
2 | CCCOc1cc2c(cc1Cc1ccc(OC)cc1)OCO2 [N, (4-Methoxybenzyl)-3,4-methylenedioxy-6n-propoxybenzene] |  |  |  | 0 | 0 | 75 | 33 | 33 |  |  |  |  |  |  |  |  |  |  |  | Egg hatch (flies (family Muscidae) [4]; 0.1% in food): 0%; Pupal development (flies (family Muscidae) [4]; 0.1% in food): 0%; mutagenic activity [5]: non-mutagenic
3 | C=CCc1cc2c(cc1Cc1ccc(OC)cc1)OCO2 [CC, (4-Methoxybenzyl)-3,4-methylenedioxy-6-(2-propenyl)benzene] | 0.2 |  |  | 0 | 0 | 50 |  |  | 0 | 0 | 15 | 15 | 0 | 0 | 100 | 65.0 | 92.7 | 45.0 | low solubility in water | mutagenic activity [5]: non-mutagenic
4 | CC(c1ccccc1)c1cc(C(C)(C)C)ccc1O (stereo not drawn) [2-(α-methylbenzyl)-4-t-butylphenol, reference compound] |  | ineffective | ineffective |  |  |  |  |  |  |  |  |  |  |  |  |  |  |  |  | 
5 | COc1ccc(Cc2cc(C(C)(C)C)cc(C(C)(C)C)c2O)cc1 [C, 4,6-Di-t-butyl-2-(4-methoxybenzyl)phenol] |  |  |  | 0 | 0 | 0 | 0 | 0 | 0 | 0 | 45 | 45 | 0 | 0 | 100 | 75.0 | 66.0 | 63.0 | low solubility in water | sterilization of males ([6]; 0.25% in food): 100%; Oviposition (flies (family Muscidae) [3]; 0.25% in food): Normal; Mortality, parent generation (flies (family Muscidae) [3]; 0.5% in food): 0%; Oviposition (flies (family Muscidae) [3]; 0.5% in food): None; Mortality, parent generation (flies (family Muscidae) [3]; 1.0% in food): 0%; Oviposition (flies (family Muscidae) [3]; 1.0% in food): None; Egg hatch (flies (family Muscidae) [4]; 0.1% in food): 0%; Pupal development (flies (family Muscidae) [4]; 0.1% in food): 0%; Egg hatch (flies (family Muscidae) [4]; 0.25% in food): 0%; Pupal development (flies (family Muscidae) [4]; 0.25% in food): 0%
6 | CC(C)(C)c1cc(C(C)(C)c2ccccc2)cc(C(C)(C)C)c1O [4-(α,α-dimethylbenzyl)-2,6-di-t-butylphenol, reference compound] |  |  | ineffective |  |  |  |  |  |  |  |  |  |  |  |  |  |  |  |  | 
7 | CCCOc1cc2c(cc1C(C)c1ccc(OC)cc1)OCO2 (stereo not drawn) [I, (α-Methyl-4-methoxybenzyl)-3,4-methylenedioxy-6-n-propoxybenzene] | 0.042 |  |  |  |  |  |  |  | 0 | 0 | 63 | 63 | 38 | 38 |  |  |  |  |  | sterilization of males ([6]; 1.0% in food): 100%; Mortality, parent generation (flies (family Muscidae) [3]; 1.0% in food): 0%
8 | CCCCOc1cc2c(cc1C(C)(C)c1ccccc1)OCO2 [AA, (α, 60 -Dimethylbenzyl)-3,4-methylenedioxy-6-n-butoxybenzene] |  | ineffective |  |  |  |  |  |  |  |  |  |  |  |  |  |  |  |  |  | 
9 | CCOc1cc2c(cc1Cc1ccc(OC)cc1)OCO2 [M, (4-Methoxybenzyl)-3,4-methylenedioxy-6-ethoxybenzene] |  |  |  | 0 | 0 |  | 0 | 0 | 0 | 0 | 19 | 19 | 0 | 0 | 99.8 | 55.0 | 88.7 | 35.0 | low solubility in water | revertant frequencies ([5]; 10-10,000 μg/plate in TA-100 and S-9): exceeded the mean control value plus two or three standard deviations; mutagenic response relative to known mutagenic agents which revert this strain ([5]; TA-100 and S-9): extremely weak
10 | CC(C)(C)c1ccc(O)c(Cc2ccccc2)c1 [2-benzyl-4-t-butylphenol, reference compound] |  | ineffective | ineffective |  |  |  |  |  |  |  |  |  |  |  |  |  |  |  |  | 
